{"source": "ChEMBL document CHEMBL1149790", "about": "“Synthesis of some novel thiourea derivatives obtained from 5-[(4-aminophenoxy)methyl]-4-alkyl/aryl-2,4-dihydro-3H-1,2,4-triazole-3-thiones and evaluation as antiviral/anti-HIV and anti-tuberculosis agents” (Eur J Med Chem, 2008)", "tested_on": "Mycobacterium tuberculosis", "experiment": "Antitubercular activity against Mycobacterium bovis BCG", "type": "functional", "settings": "variant bovis BCG", "data": [{"smiles": "CC(C)CCOc1ccc(NC(=S)Nc2ccc(OCCC(C)C)cc2)cc1", "note": "[TIOCARLIDE]", "values": [{"measurement": "MIC", "result": 0.5, "unit": "µg/mL"}]}]}
